{
  "source": "ChEMBL document CHEMBL3580614",
  "about": "“Hypermongones A-J, Rare Methylated Polycyclic Polyprenylated Acylphloroglucinols from the Flowers of Hypericum monogynum” (J Nat Prod, 2015)",
  "key": {"RAW264.7 [1]": {"tested_on": "RAW264.7", "test": "Cytotoxicity against mouse RAW264.7 cells assessed as cell viability up to 100 uM", "assay_type": "cell-based"}, "RAW264.7 [2]": {"tested_on": "RAW264.7", "test": "Antiinflammatory activity in mouse RAW264.7 cells assessed as inhibition of LPS-induced NO production incubated for 2 hrs prior to LPS-challenge measured after 24 hrs by Greiss assay", "assay_type": "functional, cell-based"}},
  "note": "pIC50: −log10 of the molar value.",
  "data": [
    {"smiles": "CC[C@H](C)C(=O)[C@]12C(=O)[C@](C)(C[C@H](CC=C(C)C)[C@@]1(C)CCC=C(C)C)C(=O)C1=C2O[C@@H](C(C)(C)O)C1", "values": [
      {"measurement": "Activity", "setting": "RAW264.7 [1]", "value": "Non-toxic"},
      {"measurement": "pIC50", "setting": "RAW264.7 [2]", "value": 4.84}
    ]},
    {"smiles": "CC[C@H](C)C(=O)[C@]12C(=O)[C@](C)(C[C@H](CC=C(C)C)[C@@]1(C)CCC=C(C)C)C(=O)C1=C2O[C@H](C(C)(C)O)C1", "values": [
      {"measurement": "Activity", "setting": "RAW264.7 [1]", "value": "Non-toxic"},
      {"measurement": "pIC50", "setting": "RAW264.7 [2]", "value": 4.63}
    ]},
    {"smiles": "CC(C)=CCC[C@]1(C)[C@@H](CC=C(C)C)C[C@]2(C)C(=O)C3=C(O[C@@H](C(C)(C)O)C3)[C@@]1(C(=O)C(C)C)C2=O", "values": [
      {"measurement": "Activity", "setting": "RAW264.7 [1]", "value": "Non-toxic"},
      {"measurement": "pIC50", "setting": "RAW264.7 [2]", "value": 4.56}
    ]},
    {"smiles": "CC(C)=CCC[C@]1(C)[C@@H](CC=C(C)C)C[C@]2(C)C(=O)C3=C(O[C@H](C(C)(C)O)C3)[C@@]1(C(=O)C(C)C)C2=O", "values": [
      {"measurement": "Activity", "setting": "RAW264.7 [1]", "value": "Non-toxic"},
      {"measurement": "pIC50", "setting": "RAW264.7 [2]", "value": "< 4.30"}
    ]},
    {"smiles": "CC[C@H](C)C(=O)[C@@]12C(=O)C3=C(O[C@H](C(C)(C)O)C3)[C@@](C)(C[C@H](CC=C(C)C)[C@@]1(C)CCC=C(C)C)C2=O", "values": [
      {"measurement": "Activity", "setting": "RAW264.7 [1]", "value": "Non-toxic"},
      {"measurement": "pIC50", "setting": "RAW264.7 [2]", "value": 4.73}
    ]},
    {"smiles": "CC[C@H](C)C(=O)[C@@]12C(=O)C3=C(O[C@@H](C(C)(C)O)C3)[C@@](C)(C[C@H](CC=C(C)C)[C@@]1(C)CCC=C(C)C)C2=O", "values": [
      {"measurement": "Activity", "setting": "RAW264.7 [1]", "value": "Non-toxic"},
      {"measurement": "pIC50", "setting": "RAW264.7 [2]", "value": 4.82}
    ]},
    {"smiles": "CC(C)=CCC[C@]1(C)[C@@H](CC=C(C)C)C[C@@]2(C)C(=O)[C@]1(C(=O)C(C)C)C(=O)C1=C2O[C@H](C(C)(C)O)C1", "values": [
      {"measurement": "Activity", "setting": "RAW264.7 [1]", "value": "Non-toxic"},
      {"measurement": "pIC50", "setting": "RAW264.7 [2]", "value": 5.02}
    ]},
    {"smiles": "CC(C)=CCC[C@]1(C)[C@@H](CC=C(C)C)C[C@@]2(C)C(=O)[C@]1(C(=O)C(C)C)C(=O)C1=C2O[C@@H](C(C)(C)O)C1", "values": [
      {"measurement": "Activity", "setting": "RAW264.7 [1]", "value": "Non-toxic"},
      {"measurement": "pIC50", "setting": "RAW264.7 [2]", "value": 4.83}
    ]},
    {"smiles": "CNC(=N)NCCC[C@H](N)C(=O)O", "note": "[TILARGININE]", "values": [
      {"measurement": "Activity", "setting": "RAW264.7 [1]", "value": "Non-toxic"},
      {"measurement": "pIC50", "setting": "RAW264.7 [2]", "value": 4.41}
    ]}
  ]
}
